# Laboratory results published in patent publication US10945972B2, “Particulate materials” (Nektar Therapeutics, priority 2002, dated 2021).
# How the values were obtained:
# Format in all cases: physicochemical
# [1] = Dynamic vapor sorption (Example 8); details: 25° C.
# Procedure: The moisture sorption isotherm of each powder at 25° C. was measured using a dynamic vapour sorption (DVS) instrument made by Surface Measurement Systems, UK. This instrument gravimetrically measures uptake and loss of water vapor on a substrate by means of a recording microbalance with a resolution of ±0.1 μg. In the first step of the experimental run, the sample was dried at 25° C. and 0% relative humidity (RH) for at least 600 minutes to bring the sample to near zero wt % H2O. Then, the instrument was programmed to increase the RH in steps of 5% RH from 0% to 90% RH and decrease the RH in steps of 10% RH from 90% to 0% RH. A criterion of dm/dt=0.005%/min was chosen for the system to hold at each RH step before proceeding to the next RH step. Sample masses between 30 and 100 mg were used in this study. The change in mass (%) is expressed in terms of g H2O per 100 g of dry substance.
# [2] = Isothermal microcalorimetry, TAM with RH ramp (Example 8); details: 25° C., RH ramp 0 to 90% at 3% RH/hr; listed as TBS2
# Procedure: A Thermal Activity Monitor (TAM, model 2277; Thermometric A B, Jrflla, Sweden) was used to measure the calorimetric heat flow (μW) vs. % RH profile of each sample. A RH-perfusion cell (Model 2255-120) accessory for the TAM was used to control RH within the sample vessel. The carrier gas, dry N2, was flowed at a constant rate (1.48 cm^3/min). All experiments were performed at 25° C. About 100 to 105 mg accurately weighed of each powder were placed in a stainless steel ampoule, attached to the RH perfusion cell, and then dried under 0% RH until a stable heat flow signal was reached (e.g., a signal within the range of −1 to +1 μW). The RH was then increased in a linear ramp from 0 to 90% over the following 30 hours (i.e., 3% RH/hr). The heat flow arising from interactions of water vapor with the solid sample was measured as a function of time. Since RH changed with time in a linear fashion, the heat flow was also known as a function of RH.
# The TAM measures the total heat flow in power, P, produced from either a physical or chemical reaction. In this study, the calorimetric power is proportional to the rate of moisture sorption or desorption, crystallization, and/or other processes. Exothermic events are measured as a deflection in the positive y-axis direction. Although crystallization is an exothermic process, it can be observed as a net endothermic process. During crystallization, there is an exotherm due to crystallization and a simultaneous endotherm due to desorption of previously sorbed moisture. The TAM profile gives the resultant of these processes.
# [3] = Inverse gas chromatography surface energy (Example 1); details: 303K
# Source text: For TBS and FHBr powders, IGC was done using a Hewlett Packard Series 6890 instrument which was specifically modified for IGC measurements by Surface Measurement Systems Ltd (Manchester, UK). The IGC method is described in detail by Tong et al. 2001. (Tong H. H. Y., B. Y. Shekunov, P. York, A. H. L. Chow, 2001. Pharm. Res. 18, 852.) Triplicate measurements in separate packed columns were made. […] The γS^D and ΔGA values were obtained at 303K.
smiles,measurement,setting,value
"CC(C)(C)NCC(O)c1cc(O)cc(O)c1 (centres unmarked) [TSB SEDS, terbutaline sulphate]",moisture uptake compared with micronised sample,[1],slightly higher moisture uptake than the micronised sample
same,RH of thermal event in TAM profile,[2],about 85 % RH
same,γs^D (mJ/m^2),[3],55.05 mJ/m^2
same,ΔGA (kJ/mol) Acetone,[3]; probe acetone,10.42 kJ/mol
same,ΔGA (kJ/mol) Chloroform,[3]; probe chloroform,1.21 kJ/mol
same,ΔGA (kJ/mol) Dioxane,[3]; probe dioxane,14.20 kJ/mol
same,ΔGA (kJ/mol) Ethyl acetate,[3]; probe ethyl acetate,13.76 kJ/mol
same,ΔGA (kJ/mol) Toluene,[3]; probe toluene,2.85 kJ/mol
